Test results from article PMC12396409, “Screening and hit evaluation of a microbial metabolite library against the pathogenic Plasmodium falciparum and Toxoplasma gondii parasites” (International Journal for Parasitology: Drugs and Drug …, 2025).
Like-named read-outs stand apart in the source and are kept apart here.

Assays:
[1] = tested on: P. falciparum 3D7 parasites; assay: P. falciparum growth inhibition assay, 1-cycle (72 h treatment), SYBR DNA staining (library screen at 2 μg/mL and dose-response); type: cell-based, Plasmodium falciparum
[2] = tested on: P. falciparum 3D7 parasites; assay: P. falciparum growth inhibition assay, 2-cycle (120 h treatment), delayed-death screen and dose-response; type: cell-based, Plasmodium falciparum
[3] = tested on: T. gondii RH strain (RH-Tub-eYFP) tachyzoites; assay: microbe, parasite or virus in culture; type: cell-based, Toxoplasma gondii; conditions: 72 h; for percent parasite growth at 2 µg/mL: Toxoplasma gondii; for Mean / Replicate 1 / Replicate 2: 2 μg/mL; for Mean: mean of both replicates, growth (% of control); for Replicate 1 / Replicate 2: values are growth (% of control)
[4] = P. falciparum, 72 h, screen at 2 μg/mL, replicate 1
[5] = P. falciparum, 72 h, screen at 2 μg/mL, replicate 2
[6] = P. falciparum, 120 h, screen at 2 μg/mL, replicate 1
[7] = P. falciparum, 120 h, screen at 2 μg/mL, replicate 2
[8] = T. gondii, screen at 2 μg/mL, replicate 1
[9] = T. gondii, screen at 2 μg/mL, replicate 2
[10] = Plasmodium falciparum, 3D7, 72 h, P. falciparum, 2 μg/mL, 72 h; read-out: 1) Growth (%) at 72 h
[11] = Plasmodium falciparum, 3D7, 120 h, P. falciparum, 2 μg/mL, 120 h; read-out: 2) Growth (%) at 120 h
[12] = library screen at 2 μg/mL, 72 h, % growth, replicate 1
[13] = library screen at 2 μg/mL, 72 h, % growth, replicate 2
[14] = library screen at 2 μg/mL, 120 h, % growth, replicate 1
[15] = library screen at 2 μg/mL, 120 h, % growth, replicate 2
[16] = library screen at 2 μg/mL, % growth, replicate 1
[17] = library screen at 2 μg/mL, % growth, replicate 2

SMILES: CCOCCO[C@@H]1CC[C@@H](C[C@@H](C)[C@@H]2CC(=O)[C@H](C)/C=C(\C)[C@@H](O)[C@@H](OC)C(=O)[C@H](C)C[C@H](C)/C=C/C=C/C=C(\C)[C@@H](OC)C[C@@H]3CC[C@@H](C)[C@@](O)(O3)C(=O)C(=O)N3CCCC[C@H]3C(=O)O2)C[C@H]1OC [Umirolimus, reference compound]
- Mean ([1]; P. falciparum, 72 h, 2 μg/mL, mean of both replicates, growth (% of control)): 22.90
- Pf_72h_%Growth_Rep1 [1, 4]: 19.04%
- Pf_72h_%Growth_Rep2 [1, 5]: 26.75%
- Pf_120h_%Growth_Rep1 [2, 6]: 49.79%
- Pf_120h_%Growth_Rep2 [2, 7]: 32.58%
- Tg_72h_%Growth_Rep1 [3, 8]: 81.37%
- Tg_72h_%Growth_Rep2 [3, 9]: 91.74%

SMILES: C=CC(C)(C)[C@@]12C[C@H]3C(=O)N[C@H](CC(C)C)C(=O)N3[C@H]1N(C(C)=O)c1ccccc12 [Verrucofortine]
- activity at 2 µg/mL ([1]; Plasmodium falciparum, 3D7, P. falciparum, 72 h, screen at 2 μg/mL, replicate 1, read-out: Pf_72h_%Growth_Rep1): 70%
- activity at 2 µg/mL ([1]; Plasmodium falciparum, 3D7, P. falciparum, 72 h, screen at 2 μg/mL, replicate 2, read-out: Pf_72h_%Growth_Rep2): 83.7%
- activity at 2 µg/mL ([2]; Plasmodium falciparum, 3D7, P. falciparum, 120 h, screen at 2 μg/mL, replicate 1, read-out: Pf_120h_%Growth_Rep1): 152%
- activity at 2 µg/mL ([2]; Plasmodium falciparum, 3D7, P. falciparum, 120 h, screen at 2 μg/mL, replicate 2, read-out: Pf_120h_%Growth_Rep2): 81.9%
- percent parasite growth at 2 µg/mL ([3]; T. gondii, screen at 2 μg/mL, replicate 1, read-out: Tg_72h_%Growth_Rep1): 90.9%
- percent parasite growth at 2 µg/mL ([3]; T. gondii, screen at 2 μg/mL, replicate 2, read-out: Tg_72h_%Growth_Rep2): 99.7%

SMILES: CC(=O)c1c(O)c(C(C)=O)c(O)c(C(C)=O)c1O [Triacetylphloroglucinol]
- Pf_72h_%Growth_Rep1 [1, 4]: 83.84%
- Pf_72h_%Growth_Rep2 [1, 5]: 50.48%
- Pf_120h_%Growth_Rep1 [2, 6]: 80.17%
- Pf_120h_%Growth_Rep2 [2, 7]: 112.26%
- Tg_72h_%Growth_Rep1 [3, 8]: 132.07%
- Tg_72h_%Growth_Rep2 [3, 9]: 93.42%

SMILES: CS(=O)(=O)c1ccc([C@@H](O)[C@@H](CF)NC(=O)C(Cl)Cl)cc1 [Florfenicol, reference compound]
- activity at 2 µg/mL [1, 10]: 62.4%
- activity at 2 µg/mL ([1]; Plasmodium falciparum, 3D7, 72 h, library screen at 2 μg/mL, 72 h, % growth, replicate 1, read-out: Pf_72h_%Growth_Rep1): 69.7%
- activity at 2 µg/mL ([1]; Plasmodium falciparum, 3D7, 72 h, library screen at 2 μg/mL, 72 h, % growth, replicate 2, read-out: Pf_72h_%Growth_Rep2): 55.2%
- 3) Fold change (72 h/120 h) [2]: 5.8
- activity at 2 µg/mL [2, 11]: 10.8%
- activity at 2 µg/mL ([2]; Plasmodium falciparum, 3D7, 120 h, library screen at 2 μg/mL, 120 h, % growth, replicate 1, read-out: Pf_120h_%Growth_Rep1): 12.9%
- activity at 2 µg/mL ([2]; Plasmodium falciparum, 3D7, 120 h, library screen at 2 μg/mL, 120 h, % growth, replicate 2, read-out: Pf_120h_%Growth_Rep2): 8.65%
- percent parasite growth at 2 µg/mL ([3]; library screen at 2 μg/mL, % growth, replicate 1, read-out: Tg_72h_%Growth_Rep1): 47.1%
- percent parasite growth at 2 µg/mL ([3]; library screen at 2 μg/mL, % growth, replicate 2, read-out: Tg_72h_%Growth_Rep2): 48.9%

SMILES: C=CC(C)(C)[C@]12C[C@@H]3C(=O)Nc4ccccc4C(=O)N3[C@H]1N(C(C)=O)c1ccccc12 [Acetylaszonalenin]
- Pf_72h_%Growth_Rep1 [1, 12]: 98.36%
- Pf_72h_%Growth_Rep2 [1, 13]: 85.99%
- Pf_120h_%Growth_Rep1 [2, 14]: 140.03%
- Pf_120h_%Growth_Rep2 [2, 15]: 96.89%
- Tg_72h_%Growth_Rep1 [3, 16]: 84.46%
- Tg_72h_%Growth_Rep2 [3, 17]: 90.00%

SMILES: COc1c(-c2ccccc2)c2ccccc2[nH]c1=O [BIA-M1149]
- Pf_72h_%Growth_Rep1 ([1]; P. falciparum 3D7, 72 h, parasite screen at 2 μg/mL, % growth, replicate 1): 89.32%
- Pf_72h_%Growth_Rep2 ([1]; P. falciparum 3D7, 72 h, parasite screen at 2 μg/mL, % growth, replicate 2): 119.11%
- Pf_120h_%Growth_Rep1 ([2]; P. falciparum 3D7, 120 h, parasite screen at 2 μg/mL, % growth, replicate 1): 106.21%
- Pf_120h_%Growth_Rep2 ([2]; P. falciparum 3D7, 120 h, parasite screen at 2 μg/mL, % growth, replicate 2): 123.66%
- Tg_72h_%Growth_Rep1 ([3]; T. gondii, parasite screen at 2 μg/mL, % growth, replicate 1): 136.04%
- Tg_72h_%Growth_Rep2 ([3]; T. gondii, parasite screen at 2 μg/mL, % growth, replicate 2): 92.92%

SMILES: CC[C@H]1OC(=O)[C@H](C)[C@@H](O[C@H]2C[C@@](C)(OC)[C@@H](O)[C@H](C)O2)[C@H](C)[C@@H](O[C@@H]2O[C@H](C)C[C@H](NC)[C@H]2O)[C@](C)(O)C[C@@H](C)C(=O)[C@H](C)[C@@H](O)[C@]1(C)O [Demethylerythromycin A, N-]
- Pf_72h_%Growth_Rep1 [1, 4]: 87.44%
- Pf_72h_%Growth_Rep2 [1, 5]: 93.22%
- Pf_120h_%Growth_Rep1 [2, 6]: 108.40%
- Pf_120h_%Growth_Rep2 [2, 7]: 97.63%
- Tg_72h_%Growth_Rep1 [3, 8]: 111.33%
- Tg_72h_%Growth_Rep2 [3, 9]: 103.06%

SMILES: COc1cc(O)c2c(c1)C(=O)c1cc3c(c(O)c1C2=O)C(OC1OC(C)C(OC)C(O)C1OC)C(OC)C(C)(O)C3=O (stereo not shown) [Steffimycin B]
- Pf_72h_%Growth_Rep1 ([1]; P. falciparum, 72 h, parasite screen 2 μg/mL, % growth, replicate 1): 70.82%
- Pf_72h_%Growth_Rep2 ([1]; P. falciparum, 72 h, parasite screen 2 μg/mL, % growth, replicate 2): 45.75%
- Pf_120h_%Growth_Rep1 ([2]; P. falciparum, 120 h, parasite screen 2 μg/mL, % growth, replicate 1): 57.65%
- Pf_120h_%Growth_Rep2 ([2]; P. falciparum, 120 h, parasite screen 2 μg/mL, % growth, replicate 2): 80.04%
- Tg_72h_%Growth_Rep1 ([3]; T. gondii, parasite screen 2 μg/mL, % growth, replicate 1): 26.05%
- Tg_72h_%Growth_Rep2 ([3]; T. gondii, parasite screen 2 μg/mL, % growth, replicate 2): 22.83%

SMILES: CO[C@@H]1[C@@H](O[C@@H]2O[C@H](C)[C@@H](O[C@H]3C[C@@](C)(O)[C@@H](OC(=O)CC(C)C)[C@H](C)O3)[C@H](N(C)C)[C@H]2O)[C@@H](CC=O)C[C@@H](C)[C@@H](O)/C=C/C=C/C[C@@H](C)OC(=O)C[C@H]1OC(C)=O [Josamycin (Leucomycin A3), reference compound]
- activity at 2 µg/mL [1, 10]: 53.5%
- 3) Fold change (72 h/120 h) [2]: 5.3
- activity at 2 µg/mL [2, 11]: 10.1%
- Mean ([3]; T. gondii): 20.93
- Replicate 1 ([3]; T. gondii): 18.33
- Replicate 2 ([3]; T. gondii): 23.52

SMILES: O=C1NC(c2c[nH]c3ccccc23)=C/C1=C1\C(=O)Nc2ccccc21 [Deoxyviolacein]
- Pf_72h_%Growth_Rep1 [1, 12]: 4.36%
- Pf_72h_%Growth_Rep2 [1, 13]: 20.63%
- Pf_120h_%Growth_Rep1 [2, 14]: 11.68%
- Pf_120h_%Growth_Rep2 [2, 15]: 9.06%
- Mean ([3]; T. gondii): 20.63
- Replicate 1 ([3]; T. gondii): 14.71
- Replicate 2 ([3]; T. gondii): 26.55
- Tg_72h_%Growth_Rep1 [3, 16]: 14.71%
- Tg_72h_%Growth_Rep2 [3, 17]: 26.55%
